Results taken from patent US20250033966A1, “MANUFACTURING METHOD FOR OBTAINING NOVEL CHLORINE OXIDE COMPOSITION FROM DEGRADED HYPOCHLORITE” (HONBUSANKEI CO., LTD., priority 2018, published 2025).

Tests used:
[1] = ORP (oxidation-reduction potential) of mixtures versus sodium hypochlorite solution of the same concentration; assay type: physicochemical; settings: for ORP: Only solution
[2] = tested on: overall viable bacteria count; test: Bactericidal effect on green onions, overall viable bacteria count; assay type: cell-based; settings: green onion, immersion 30 minutes
E. coli group = test: Bactericidal effect on green onions, E. coli group count; assay type: cell-based; settings: green onion, immersion 30 minutes

OCl [sodium hypochlorite]
ORP ([1]; 200 ppm): 554 mV
ORP ([1]; 1000 ppm): 560 mV
ORP ([1]; Undiluted solution (6%)): 560 mV
ORP (oxidation-reduction potential) / oxidizing power upon dilution ([1]; diluted): no change
Overall viable bacteria count ([2]; 200 ppm, D + 0): 5.00 log CFU
Overall viable bacteria count ([2]; 200 ppm, D + 1): 5.72 log CFU
Overall viable bacteria count ([2]; 1000 ppm, D + 0): 3.57 log CFU
Overall viable bacteria count ([2]; 1000 ppm, D + 1): 5.61 log CFU
E. coli group count (E. coli group; 200 ppm, D + 3): 5.66 log CFU
E. coli group count (E. coli group; 1000 ppm, D + 2): 2.64 log CFU
E. coli group count (E. coli group; 1000 ppm, D + 3): 4.73 log CFU
